From PubChem BioAssay (NCI)
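Step 1: Grow cells in 96-well plates. Step 2: Expose to compound for 48 hours at 5 concentrations. Step 3: Interpolate endpoints linearly; if unreached, use highest concentration. TGI marks complete inhibition of growth.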

Key:
Assay in all cases: DTP human tumour cell line panel, 48 h
[1] = system: OVCAR-4 ovarian
[2] = system: MDA-N
[3] = system: EKVX NSCLC
[4] = system: BT-549 breast
[5] = system: SW-620 colon
[6] = system: M14 melanoma
[7] = system: UACC-62 melanoma
[8] = system: LOX IMVI melanoma
[9] = system: UACC-257 melanoma
[10] = system: SNB-75 CNS
[11] = system: 786-0 renal
[12] = system: RXF 393 renal
[13] = system: SN12C renal
[14] = system: NCI-H226 lung
[15] = system: ACHN renal
[16] = system: SF-295 CNS
[17] = system: SF-268 CNS
[18] = system: K-562 leukemia
[19] = system: HCT-15 colon
[20] = system: SK-MEL-5 melanoma
[21] = system: SK-OV-3 ovarian
[22] = system: A549 NSCLC
[23] = system: PC-3 prostate
[24] = system: HS 578T breast
[25] = system: RPMI-8226 leukemia
[26] = system: HT29 colon
[27] = system: NCI/ADR-RES ovarian
[28] = system: HCC-2998 colon
[29] = system: TK-10 renal
[30] = system: SNB-19 CNS
[31] = system: KM12 colon
[32] = system: IGROV1 ovarian
[33] = system: T-47D breast
[34] = system: HL-60(TB) leukemia
[35] = system: SK-MEL-28 melanoma
[36] = system: CAKI-1 renal
[37] = system: MDA-MB-231 breast
[38] = system: HOP-62 NSCLC
[39] = system: MOLT-4 leukemia
[40] = system: A498 renal
[41] = system: OVCAR-8 ovarian
[42] = system: MCF7 breast
[43] = system: OVCAR-5 ovarian
[44] = system: SF-539 CNS
[45] = system: UO-31 renal
[46] = system: MALME-3M melanoma
[47] = system: NCI-H460 lung
[48] = system: DU-145 prostate
[49] = system: CCRF-CEM leukemia
[50] = system: HCT-116 colon
[51] = system: MDA-MB-435
[52] = system: SK-MEL-2 melanoma
[53] = system: U251 CNS
[54] = system: COLO 205 colon
[55] = system: OVCAR-3 ovarian
[56] = system: SR leukemia
[57] = system: NCI-H522 lung
[58] = system: NCI-H23 lung

Measured: TGI

O=C(O)CCn1cnc2c(=S)nc[nH]c21
> 100 µM: all assays above

C[C@@H](c1ccccc1)N1CN(C(=O)OCc2ccccc2)C(CO)C1=O (some centres undefined)
not listed: [40] | [45]
> 100 µM: all other assays above
